The results in this text go back to ChEMBL document CHEMBL5029201, “Development of Polyamine Lassos as Polyamine Transport Inhibitors” (ACS Med Chem Lett, 2022).

For data set [1], the system named is L3.6pl. As to the kind of experiment: Cytotoxicity against human L3.6pl cells assessed as reduction in cell growth measured after 72 hrs by CellTiter96 one aqueous solution assay. The note with it: for IC50: Homo sapiens, L3.6pl; for MTC: human, l3.6pl, time 72 hrs. In kind it is cell-based.
For data set [2], the system named is L3.6pl. Nature of the data set: Effect on human L3.6pI cells assessed as rescue of Ant44-induced toxicity at 30 uM measured after 24 hrs. The data set is classed as functional.
A short description of data set [3]: Decrease in intracellular polyamine level in human L3.6pI cells assessed as Spd/Spm molar ratio at 30 uM measured after 24 hrs by HPLC analysis (reference value: 1.9). In kind it is functional, L3.6pl.
Data set [4] is described as follows: Decrease in intracellular polyamine level in human L3.6pI cells assessed as total polyamine level at 30 uM measured after 24 hrs in presence of DFMO by HPLC analysis (reference value: 20.7 nmol/mg). In kind it is functional, L3.6pl.
The nature of data set [5]: (§1) Cytotoxicity against murine L1210 cells assessed as reduction in cell growth measured after 72 hrs by CellTiter96 one aqueous solution assay. In kind it is cell-based, Mus musculus. Particulars: mouse, L1210 cells; time 72 hrs; read-out: MTC.
Another data set concerns L1210. The description is as §1. In kind it is cell-based, Mus musculus. The note with it: Mus musculus, L1210, 72 h.
Data set [6] in a line: Decrease in intracellular polyamine level in human L3.6pI cells assessed as total polyamine level at 30 uM measured after 24 hrs by HPLC analysis (reference value: 35.9 nmol/mg). In kind it is functional, L3.6pl.
Data set [7] is described as follows: Decrease in intracellular polyamine level in human L3.6pI cells assessed as Spd/Spm molar ratio at 30 uM measured after 24 hrs in presence of DFMO by HPLC analysis (reference value: 0.2). In kind it is functional, L3.6pl.
The nature of data set [8]: Decrease in intracellular polyamine level in human L3.6pI cells assessed as total polyamine level at 30 uM measured after 24 hrs in presence of DFMO and Spd by HPLC analysis (reference value: 23.5 nmol/mg). The data set is classed as functional, L3.6pl.
Data set [9] concerns L3.6pl. Nature of the data set: Inhibition of spermidine uptake in human L3.6pI cells assessed as effect on cell growth measured after 72 hrs in presence of DFMO by CellTiter96 aqueous one solution assay. In kind it is functional, cell-based.
Data set [10] in a line: Decrease in intracellular polyamine level in human L3.6pI cells assessed as Spd/Spm molar ratio at 30 uM measured after 24 hrs in presence of DFMO and Spd by HPLC analysis (reference value: 0.4). In kind it is functional, L3.6pl.
Data set [11] is described as follows: Inhibition of polyamine transport system in human L3.6pI cells assessed as reduction in [3H] spermidine uptake by Lineweaver-Burk double reciprocal plot analysis. The data set is classed as cell-based. The note with it: l3.6pl.
Data set [12] in a line: Inhibition of polyamine transport system in murine L1210 cells assessed as reduction in [3H] spermidine uptake by Lineweaver-Burk double reciprocal plot analysis. In kind it is cell-based, Mus musculus.
Data set [13] can be described thus: Inhibition of polyamine transport system in human L3.6pI cells assessed as reduction in [3H] putrescine uptake by Lineweaver-Burk double reciprocal plot analysis. In kind it is cell-based. The note with it: l3.6pl.
Data set [14] is described as follows: Inhibition of polyamine transport system in human L3.6pI cells assessed as reduction in [3H] spermine uptake by Lineweaver-Burk double reciprocal plot analysis. The data set is classed as cell-based. Particulars: l3.6pl.
Data set [15] deals with L3.6pl. As to the kind of experiment: Inhibition of [3H]spermidine uptake in human L3.6pI cells at 3 to 10 uM measured after 15 mins by scintillation counter method. In kind it is functional, cell-based. The note with it: dose 3-10 µM.
For data set [16], the system named is L3.6pl. Nature of the data set: Inhibition of [3H]spermine uptake in human L3.6pI cells at 3 to 10 uM measured after 15 mins by scintillation counter method. The data set is classed as functional, cell-based. The note with it: dose 3-10 µM.
The subject of data set [17] is L3.6pl. Nature of the data set: Inhibition of [3H]putresine uptake in human L3.6pI cells at up to 30 uM measured after 15 mins by scintillation counter method. In kind it is functional, cell-based. The note with it: dose microM <=30, time 15.0 min.

In general, IC50 refers to the point on the concentration scale where inhibition reaches its midpoint. As usually defined, the Ki is a measure of affinity in units of concentration, obtained from inhibition or displacement.

The source made the active and inactive calls. The rule behind the calls is not given here. Bounds are passed on as bounds.

On to `C1CNCCNCCN1`, for which, in the data set on L3.6pl [1], the IC50 was 980 µM and the MTC was 250 µM.

For `Cl.Cl.Cl.Cl.Cl.NCCCCNCCCCN1CCNCCNCC1`, the outcome in the data set with L3.6pl [2] and in the data set with L3.6pl [9] was Active. The results for the Ratio in data set [3], in data set [7] and in [10] were 1.6, 0.1 and 0.2, respectively. Besides, the Activity was found to be 17 nmol/mg in data set [4], 36.4 nmol/mg in data set [6] and 20.8 nmol/mg in data set [8]. Also, the IC50 in the data set with L3.6pl [1] was 1170 µM; in the data set with L1210, greater than 100 µM. Further, in the data set with L3.6pl [1], the MTC is 500 µM. For the same compound, the MCC at 72 h in [5] was greater than 100000 nM. Besides, the Ki in data set [11] was found to be 3.3 µM; in data set [12], 1.9 µM; in data set [13], 11.6 µM; in [14] it was 1.3 µM. Further, the inhibition entry in the data set on L3.6pl [15] and with L3.6pl [16] was “Active” in each case. The inhibition result in the data set on L3.6pl [17] is “inactive”.

Consider `C1CNCCCNCCCNC1`, for which, in the data set on L3.6pl [1], the IC50 came out at 129 µM and the MTC was 50 µM.

As to `Cl.Cl.Cl.Cl.Cl.NCCCCNCCCCN1CCCNCCCNCCC1`, the figures for the IC50 with L3.6pl [1] and in the data set on L1210 were 368 µM and greater than 100 µM, respectively. Moreover, the MTC in the data set on L3.6pl [1] is 100 µM. In data set [5], the MCC at 72 h worked out at 1000 nM. Further, the result in the data set with L3.6pl [9] was Active. In addition, the Ki is 3.7 µM in [11] and 7.1 µM in [12].

As to `CNCCCCNCCCCNCc1cc(CNCCCCNCCCCNC)cc(CNCCCCNCCCCNC)c1`, the IC50 in the data set on L3.6pl [1] is 50 µM. Besides, the MTC in the data set on L3.6pl [1] turned out to be 3 µM. Also, the Ki is 2.6 µM in [11], 17.4 µM in [13] and 0.9 µM in data set [14]. For the same compound, the inhibition entry in the data set on L3.6pl [15] and with L3.6pl [16] was “Active” throughout.
